# Values of other authors as cited in patent publication US11426350B1, “Reducing the environmental impact of farming using biochar” (Carbon Technology Holdings, LLC, priority 2014, dated 2022).
# Tested on: E. coli O157:H7
substance,measurement,value
Lactobacillus rhamnosus GG,E. coli O157:H7-induced lesions in Caco-2 cells,prevent
